Measured values as given in the kinase profiling compilation of Christmann-Franck et al. (2016).

Key:
Test in all cases: radiometric filter-binding kinase assay
[1] = system: AKT2 (human), P31751 [S474D]
[2] = biological target: AURKB (human) (UniProt Q96GD4)
[3] = biological target: CAMKK2 (human) (UniProt Q96RR4)
[4] = biological target: CHEK1 (human) (UniProt O14757)
[5] = biological target: CHEK2 (human) (UniProt O96017)
[6] = biological target: EPHB4 (human) (UniProt P54760)
[7] = biological target: GCK (human) (UniProt Q12851)
[8] = biological target: IGF1R (human) (UniProt P08069)
[9] = biological target: IKBKB (human) (UniProt O14920)
[10] = biological target: MAP2K1 (human) (UniProt Q02750)
[11] = biological target: MAP3K1 (human) (UniProt Q13233)
[12] = biological target: MAP3K5 (human) (UniProt Q99683)
[13] = biological target: MAPK1 (human) (UniProt P28482)
[14] = biological target: MAPK10 (human) (UniProt P53779)
[15] = biological target: MAPK15 (human) (UniProt Q8TD08)
[16] = biological target: MAPK3 (human) (UniProt P27361)
[17] = biological target: MAPK9 (human) (UniProt P45984)
[18] = biological target: MAPKAPK2 (human) (UniProt P49137)
[19] = biological target: MARK2 (human) (UniProt Q7KZI7)
[20] = biological target: MINK1 (human) (UniProt Q8N4C8)
[21] = biological target: MKNK1 (human) (UniProt Q9BUB5)
[22] = biological target: MKNK2 (human) (UniProt Q9HBH9)
[23] = biological target: NEK2 (human) (UniProt P51955)
[24] = biological target: NTRK1 (human) (UniProt P04629)
[25] = biological target: PHKG1 (human) (UniProt Q16816)
[26] = biological target: PIM2 (human) (UniProt Q9P1W9)
[27] = biological target: PKN2 (human) (UniProt Q16513)
[28] = system: PRKAA1 or PRKAA2 (rat); conditions: accession and sequence are those of the human protein
[29] = biological target: PRKACA (human) (UniProt P17612)
[30] = biological target: PRKCA (human) (UniProt P17252)
[31] = biological target: RPS6KA1 KD1 KD2 (human) (UniProt Q15418)
[32] = biological target: SRC (human) (UniProt P12931)
[33] = biological target: STK11 CAB39 STRADA (human) (UniProt Q9Y376+Q7RTN6+Q15831)
[34] = biological target: STK3 (human) (UniProt Q13188)
[35] = biological target: YES1 (human) (UniProt P07947)

Sequence of STK3 (human) (Q13188 whole entry, looked up): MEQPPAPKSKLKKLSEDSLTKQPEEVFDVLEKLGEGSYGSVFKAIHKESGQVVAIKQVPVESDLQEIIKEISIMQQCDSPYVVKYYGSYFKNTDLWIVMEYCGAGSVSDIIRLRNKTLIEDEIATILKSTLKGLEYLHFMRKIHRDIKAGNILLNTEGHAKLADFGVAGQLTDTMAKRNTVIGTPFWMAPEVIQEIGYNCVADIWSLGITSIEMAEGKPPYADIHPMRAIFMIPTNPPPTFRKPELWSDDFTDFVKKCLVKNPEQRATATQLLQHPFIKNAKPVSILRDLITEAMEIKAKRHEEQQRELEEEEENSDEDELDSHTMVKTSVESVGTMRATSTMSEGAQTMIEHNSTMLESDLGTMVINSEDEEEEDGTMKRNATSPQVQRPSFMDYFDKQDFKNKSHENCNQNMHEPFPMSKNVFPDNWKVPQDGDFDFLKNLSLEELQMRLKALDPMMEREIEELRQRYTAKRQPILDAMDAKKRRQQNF
Sequence of MINK1 (human) (Q8N4C8 whole entry, looked up): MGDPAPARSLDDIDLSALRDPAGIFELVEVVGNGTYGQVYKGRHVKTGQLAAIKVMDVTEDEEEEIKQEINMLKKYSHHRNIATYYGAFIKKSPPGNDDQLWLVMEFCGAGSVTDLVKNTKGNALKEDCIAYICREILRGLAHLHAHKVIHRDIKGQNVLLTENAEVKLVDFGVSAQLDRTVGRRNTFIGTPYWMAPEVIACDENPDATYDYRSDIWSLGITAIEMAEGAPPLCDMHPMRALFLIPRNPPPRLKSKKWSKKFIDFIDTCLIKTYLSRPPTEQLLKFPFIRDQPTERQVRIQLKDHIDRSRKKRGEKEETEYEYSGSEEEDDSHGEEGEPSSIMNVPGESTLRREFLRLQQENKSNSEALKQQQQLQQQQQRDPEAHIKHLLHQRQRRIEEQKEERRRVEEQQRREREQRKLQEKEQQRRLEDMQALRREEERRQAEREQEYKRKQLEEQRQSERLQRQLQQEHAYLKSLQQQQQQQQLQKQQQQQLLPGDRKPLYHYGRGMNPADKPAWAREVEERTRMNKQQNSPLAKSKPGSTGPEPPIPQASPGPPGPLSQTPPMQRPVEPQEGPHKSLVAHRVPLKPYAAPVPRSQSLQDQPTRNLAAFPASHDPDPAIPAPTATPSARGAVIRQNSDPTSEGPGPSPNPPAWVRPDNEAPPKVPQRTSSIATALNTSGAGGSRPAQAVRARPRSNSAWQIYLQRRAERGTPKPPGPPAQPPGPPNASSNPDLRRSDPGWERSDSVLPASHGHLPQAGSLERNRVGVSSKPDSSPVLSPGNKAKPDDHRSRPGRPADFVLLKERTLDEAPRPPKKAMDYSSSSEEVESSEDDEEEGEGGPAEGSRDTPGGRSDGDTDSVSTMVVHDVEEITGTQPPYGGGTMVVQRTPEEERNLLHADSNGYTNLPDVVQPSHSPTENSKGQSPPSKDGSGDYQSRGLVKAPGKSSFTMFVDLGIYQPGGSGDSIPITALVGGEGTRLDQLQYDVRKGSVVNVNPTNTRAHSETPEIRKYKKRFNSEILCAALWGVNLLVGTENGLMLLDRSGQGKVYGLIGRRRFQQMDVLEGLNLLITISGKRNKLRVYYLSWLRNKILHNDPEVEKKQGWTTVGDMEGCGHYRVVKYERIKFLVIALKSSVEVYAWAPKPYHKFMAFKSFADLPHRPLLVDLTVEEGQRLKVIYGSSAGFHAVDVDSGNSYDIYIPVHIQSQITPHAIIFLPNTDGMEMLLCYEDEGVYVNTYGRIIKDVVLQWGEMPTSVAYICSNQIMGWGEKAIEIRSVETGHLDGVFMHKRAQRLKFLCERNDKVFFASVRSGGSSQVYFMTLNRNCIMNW
Sequence of RPS6KA1 KD1 KD2 (human) (Q15418 whole entry, looked up): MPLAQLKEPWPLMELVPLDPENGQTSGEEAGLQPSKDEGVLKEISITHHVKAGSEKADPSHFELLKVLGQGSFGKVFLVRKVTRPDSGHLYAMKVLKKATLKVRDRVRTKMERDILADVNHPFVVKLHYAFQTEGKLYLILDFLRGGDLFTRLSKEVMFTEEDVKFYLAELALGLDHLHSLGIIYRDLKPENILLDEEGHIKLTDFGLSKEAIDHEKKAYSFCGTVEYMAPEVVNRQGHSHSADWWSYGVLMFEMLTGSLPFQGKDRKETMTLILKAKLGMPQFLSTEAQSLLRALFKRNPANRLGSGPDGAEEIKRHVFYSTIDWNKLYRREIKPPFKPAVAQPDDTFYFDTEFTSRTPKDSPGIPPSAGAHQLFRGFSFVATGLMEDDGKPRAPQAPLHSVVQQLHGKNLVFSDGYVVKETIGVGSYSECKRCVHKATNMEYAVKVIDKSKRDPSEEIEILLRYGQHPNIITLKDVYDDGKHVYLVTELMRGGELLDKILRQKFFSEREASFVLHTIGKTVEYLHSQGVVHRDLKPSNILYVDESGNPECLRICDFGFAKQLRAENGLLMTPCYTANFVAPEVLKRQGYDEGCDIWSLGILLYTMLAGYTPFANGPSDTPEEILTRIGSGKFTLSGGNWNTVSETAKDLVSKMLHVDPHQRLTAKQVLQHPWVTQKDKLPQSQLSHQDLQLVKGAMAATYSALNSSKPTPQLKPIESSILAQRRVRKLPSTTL
Sequence of MAPK3 (human) (P27361 whole entry, looked up): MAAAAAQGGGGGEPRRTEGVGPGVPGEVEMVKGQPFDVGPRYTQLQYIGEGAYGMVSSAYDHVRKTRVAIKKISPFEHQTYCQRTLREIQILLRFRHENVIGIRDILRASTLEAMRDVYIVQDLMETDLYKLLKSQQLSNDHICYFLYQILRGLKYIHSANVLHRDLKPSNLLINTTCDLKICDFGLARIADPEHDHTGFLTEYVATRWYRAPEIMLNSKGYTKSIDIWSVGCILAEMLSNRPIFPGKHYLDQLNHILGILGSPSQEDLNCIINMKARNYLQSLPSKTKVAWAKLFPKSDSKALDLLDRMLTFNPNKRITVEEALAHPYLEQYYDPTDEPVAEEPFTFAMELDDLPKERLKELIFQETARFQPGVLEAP
Sequence of MAPK9 (human) (P45984 whole entry, looked up): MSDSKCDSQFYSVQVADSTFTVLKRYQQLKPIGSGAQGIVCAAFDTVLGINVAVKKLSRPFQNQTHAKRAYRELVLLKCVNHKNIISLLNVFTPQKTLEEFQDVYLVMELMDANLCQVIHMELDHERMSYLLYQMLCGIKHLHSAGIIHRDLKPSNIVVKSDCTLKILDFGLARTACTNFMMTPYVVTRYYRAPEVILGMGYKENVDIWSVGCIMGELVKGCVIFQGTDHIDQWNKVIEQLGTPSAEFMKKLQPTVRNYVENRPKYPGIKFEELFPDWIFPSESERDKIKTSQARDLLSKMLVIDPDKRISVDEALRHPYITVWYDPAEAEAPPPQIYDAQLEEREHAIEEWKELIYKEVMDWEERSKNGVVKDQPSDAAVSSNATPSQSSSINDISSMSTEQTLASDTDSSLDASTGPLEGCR
Sequence of NEK2 (human) (P51955 whole entry, looked up): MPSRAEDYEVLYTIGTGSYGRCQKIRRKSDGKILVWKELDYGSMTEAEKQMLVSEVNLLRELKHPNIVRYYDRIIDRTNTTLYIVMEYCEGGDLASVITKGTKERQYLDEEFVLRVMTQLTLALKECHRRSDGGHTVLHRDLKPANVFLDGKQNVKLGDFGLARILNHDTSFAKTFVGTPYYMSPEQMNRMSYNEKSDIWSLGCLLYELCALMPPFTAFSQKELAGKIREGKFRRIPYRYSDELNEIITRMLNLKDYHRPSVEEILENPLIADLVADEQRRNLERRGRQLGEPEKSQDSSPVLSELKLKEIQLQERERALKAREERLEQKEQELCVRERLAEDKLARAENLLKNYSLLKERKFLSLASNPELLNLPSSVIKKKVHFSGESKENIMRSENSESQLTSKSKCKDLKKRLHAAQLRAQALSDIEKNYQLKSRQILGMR
Sequence of EPHB4 (human) (P54760 whole entry, looked up): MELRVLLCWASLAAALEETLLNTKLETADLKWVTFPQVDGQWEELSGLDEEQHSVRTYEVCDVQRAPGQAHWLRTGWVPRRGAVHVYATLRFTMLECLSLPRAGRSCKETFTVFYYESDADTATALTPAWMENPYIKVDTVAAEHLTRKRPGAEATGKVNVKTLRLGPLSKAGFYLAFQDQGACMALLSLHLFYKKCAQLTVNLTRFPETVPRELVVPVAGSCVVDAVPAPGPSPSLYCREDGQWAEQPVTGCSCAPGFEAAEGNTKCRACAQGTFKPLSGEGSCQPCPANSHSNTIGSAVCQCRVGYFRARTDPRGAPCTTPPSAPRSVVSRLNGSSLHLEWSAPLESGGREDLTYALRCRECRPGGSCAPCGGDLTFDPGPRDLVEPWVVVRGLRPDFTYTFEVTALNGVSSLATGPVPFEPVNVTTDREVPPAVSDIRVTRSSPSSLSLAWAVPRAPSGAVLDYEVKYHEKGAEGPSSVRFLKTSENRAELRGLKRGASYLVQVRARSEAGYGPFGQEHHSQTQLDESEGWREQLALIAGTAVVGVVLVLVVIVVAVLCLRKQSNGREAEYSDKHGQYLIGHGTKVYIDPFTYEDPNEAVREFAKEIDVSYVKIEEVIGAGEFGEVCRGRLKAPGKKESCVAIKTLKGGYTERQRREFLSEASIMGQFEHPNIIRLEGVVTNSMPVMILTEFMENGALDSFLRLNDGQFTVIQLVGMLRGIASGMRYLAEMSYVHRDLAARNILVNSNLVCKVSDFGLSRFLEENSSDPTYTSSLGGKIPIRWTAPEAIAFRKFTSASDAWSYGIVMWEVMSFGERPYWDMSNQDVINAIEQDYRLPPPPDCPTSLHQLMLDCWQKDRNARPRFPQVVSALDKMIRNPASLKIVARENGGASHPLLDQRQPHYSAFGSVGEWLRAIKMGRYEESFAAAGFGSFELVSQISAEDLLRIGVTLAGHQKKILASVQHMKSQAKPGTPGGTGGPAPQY

NCC(=O)Nc1ccc(-n2nc(C(F)(F)F)cc2-c2ccc3c(ccc4ccccc43)c2)cc1 was tested, and the residual activity ([1]; compound 1.0 µM) was 87%, the residual activity ([1]; compound 10.0 µM) was 54% and the residual activity ([2]; compound 1.0 µM) was 93%. The residual activity ([2]; compound 10.0 µM) was 88%, the residual activity ([3]; compound 10.0 µM) was 115% and the residual activity ([4]; compound 1.0 µM) was 72%. It also gave a residual activity ([4]; compound 10.0 µM) of 44%, a residual activity ([5]; compound 10.0 µM) of 76% and a residual activity ([6]; compound 1.0 µM) of 116%. For the same compound, the residual activity ([7]; compound 1.0 µM) was 107%, the residual activity ([7]; compound 10.0 µM) was 92% and the residual activity ([8]; compound 10.0 µM) was 105%. For the same compound, the residual activity ([9]; compound 1.0 µM) was 87%, the residual activity ([9]; compound 10.0 µM) was 88% and the residual activity ([10]; compound 1.0 µM) was 108%. It also gave a residual activity ([10]; compound 10.0 µM) of 107%, a residual activity ([11]; compound 1.0 µM) of 93% and a residual activity ([11]; compound 10.0 µM) of 103%. The residual activity ([12]; compound 1.0 µM) was 86%, the residual activity ([12]; compound 10.0 µM) was 83% and the residual activity ([13]; compound 1.0 µM) was 101%. For the same compound, the residual activity ([13]; compound 10.0 µM) was 88%, the residual activity ([14]; compound 1.0 µM) was 85% and the residual activity ([14]; compound 10.0 µM) was 86%. For the same compound, the residual activity ([15]; compound 1.0 µM) was 79%, the residual activity ([15]; compound 10.0 µM) was 75% and the residual activity ([16]; compound 1.0 µM) was 80%. The residual activity ([16]; compound 10.0 µM) was 63%, the residual activity ([17]; compound 1.0 µM) was 102% and the residual activity ([17]; compound 10.0 µM) was 96%. The residual activity ([18]; compound 1.0 µM) was 91%, the residual activity ([18]; compound 10.0 µM) was 95% and the residual activity ([19]; compound 1.0 µM) was 94%. It also gave a residual activity ([19]; compound 10.0 µM) of 89%, a residual activity ([20]; compound 1.0 µM) of 78% and a residual activity ([20]; compound 10.0 µM) of 47%. For the same compound, the residual activity ([21]; compound 1.0 µM) was 86%, the residual activity ([21]; compound 10.0 µM) was 83% and the residual activity ([22]; compound 1.0 µM) was 91%. The residual activity ([22]; compound 10.0 µM) was 109%, the residual activity ([23]; compound 1.0 µM) was 96% and the residual activity ([23]; compound 10.0 µM) was 92%. The residual activity ([24]; compound 1.0 µM) was 90%, the residual activity ([24]; compound 10.0 µM) was 90% and the residual activity ([25]; compound 1.0 µM) was 79%. It also gave a residual activity ([25]; compound 10.0 µM) of 72%, a residual activity ([26]; compound 1.0 µM) of 93% and a residual activity ([26]; compound 10.0 µM) of 98%. For the same compound, the residual activity ([27]; compound 1.0 µM) was 85%, the residual activity ([27]; compound 10.0 µM) was 63% and the residual activity ([28]; compound 1.0 µM) was 99%. It also gave a residual activity ([28]; compound 10.0 µM) of 105%, a residual activity ([29]; compound 1.0 µM) of 100% and a residual activity ([29]; compound 10.0 µM) of 93%. The residual activity ([30]; compound 1.0 µM) was 94%, the residual activity ([30]; compound 10.0 µM) was 90% and the residual activity ([31]; compound 1.0 µM) was 87%. For the same compound, the residual activity ([31]; compound 10.0 µM) was 63%, the residual activity ([32]; compound 1.0 µM) was 103% and the residual activity ([32]; compound 10.0 µM) was 135%. For the same compound, the residual activity ([33]; compound 1.0 µM) was 103%, the residual activity ([33]; compound 10.0 µM) was 99% and the residual activity ([34]; compound 1.0 µM) was 106%. The residual activity ([34]; compound 10.0 µM) was 81%, the residual activity ([35]; compound 1.0 µM) was 85% and the residual activity ([35]; compound 10.0 µM) was 80%.

O=c1c(O)c(-c2ccc(O)c(O)c2)oc2cc(O)c(O)c(O)c12 was tested, and the residual activity ([1]; compound 1.0 µM) was 21%, the residual activity ([1]; compound 10.0 µM) was 1% and the residual activity ([2]; compound 1.0 µM) was 62%. It also gave a residual activity ([2]; compound 10.0 µM) of 8%, a residual activity ([3]; compound 1.0 µM) of 72% and a residual activity ([3]; compound 10.0 µM) of 61%. For the same compound, the residual activity ([4]; compound 1.0 µM) was 92%, the residual activity ([4]; compound 10.0 µM) was 32% and the residual activity ([5]; compound 1.0 µM) was 48%. For the same compound, the residual activity ([5]; compound 10.0 µM) was 5%, the residual activity ([6]; compound 1.0 µM) was 90% and the residual activity ([6]; compound 10.0 µM) was 56%. It also gave a residual activity ([7]; compound 1.0 µM) of 93%, a residual activity ([7]; compound 10.0 µM) of 23% and a residual activity ([8]; compound 1.0 µM) of 96%. It also gave a residual activity ([8]; compound 10.0 µM) of 43%, a residual activity ([9]; compound 1.0 µM) of 100% and a residual activity ([9]; compound 10.0 µM) of 16%. For the same compound, the residual activity ([10]; compound 1.0 µM) was 84%, the residual activity ([10]; compound 10.0 µM) was 24% and the residual activity ([11]; compound 1.0 µM) was 67%. The residual activity ([11]; compound 10.0 µM) was 74%, the residual activity ([12]; compound 1.0 µM) was 118% and the residual activity ([13]; compound 1.0 µM) was 107%. For the same compound, the residual activity ([13]; compound 10.0 µM) was 105%, the residual activity ([14]; compound 1.0 µM) was 107% and the residual activity ([14]; compound 10.0 µM) was 89%. It also gave a residual activity ([15]; compound 1.0 µM) of 89%, a residual activity ([15]; compound 10.0 µM) of 65% and a residual activity ([16]; compound 1.0 µM) of 101%. For the same compound, the residual activity ([16]; compound 10.0 µM) was 54%, the residual activity ([17]; compound 1.0 µM) was 106% and the residual activity ([17]; compound 10.0 µM) was 100%. For the same compound, the residual activity ([18]; compound 1.0 µM) was 94%, the residual activity ([18]; compound 10.0 µM) was 53% and the residual activity ([19]; compound 1.0 µM) was 86%. For the same compound, the residual activity ([19]; compound 10.0 µM) was 26%, the residual activity ([20]; compound 1.0 µM) was 56% and the residual activity ([20]; compound 10.0 µM) was 10%. It also gave a residual activity ([21]; compound 1.0 µM) of 61%, a residual activity ([21]; compound 10.0 µM) of 12% and a residual activity ([22]; compound 1.0 µM) of 63%. The residual activity ([22]; compound 10.0 µM) was 26%, the residual activity ([23]; compound 1.0 µM) was 86% and the residual activity ([23]; compound 10.0 µM) was 13%. For the same compound, the residual activity ([24]; compound 1.0 µM) was 92%, the residual activity ([24]; compound 10.0 µM) was 29% and the residual activity ([25]; compound 1.0 µM) was 98%. It also gave a residual activity ([25]; compound 10.0 µM) of 2%, a residual activity ([26]; compound 1.0 µM) of 74% and a residual activity ([26]; compound 10.0 µM) of 11%. It also gave a residual activity ([27]; compound 1.0 µM) of 106%, a residual activity ([27]; compound 10.0 µM) of 102% and a residual activity ([28]; compound 1.0 µM) of 73%. For the same compound, the residual activity ([28]; compound 10.0 µM) was 9%, the residual activity ([29]; compound 1.0 µM) was 109% and the residual activity ([29]; compound 10.0 µM) was 79%. The residual activity ([30]; compound 1.0 µM) was 99%, the residual activity ([30]; compound 10.0 µM) was 80% and the residual activity ([31]; compound 1.0 µM) was 51%. It also gave a residual activity ([31]; compound 10.0 µM) of 15%, a residual activity ([32]; compound 1.0 µM) of 38% and a residual activity ([32]; compound 10.0 µM) of 25%. For the same compound, the residual activity ([33]; compound 1.0 µM) was 95%, the residual activity ([33]; compound 10.0 µM) was 55% and the residual activity ([34]; compound 1.0 µM) was 58%. For the same compound, the residual activity ([34]; compound 10.0 µM) was 9%, the residual activity ([35]; compound 1.0 µM) was 42% and the residual activity ([35]; compound 10.0 µM) was 9%.
